Reference: patent US8962608B2, “Cycloalkylnitrile pyrazole carboxamides as janus kinase inhibitors” (Merck Sharp & Dohme Corp., priority 2011, dated 2015)
pIC50: −log10 of the molar value.

Target: JAK1 (recombinant purified GST-tagged catalytic domain) (Homo sapiens (Human), UniProt P23458)
Test: biochemical
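Further: biochemical assay with HTRF read-out.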

Sequence of JAK1 (recombinant purified GST-tagged catalytic domain) (P23458 875-1153): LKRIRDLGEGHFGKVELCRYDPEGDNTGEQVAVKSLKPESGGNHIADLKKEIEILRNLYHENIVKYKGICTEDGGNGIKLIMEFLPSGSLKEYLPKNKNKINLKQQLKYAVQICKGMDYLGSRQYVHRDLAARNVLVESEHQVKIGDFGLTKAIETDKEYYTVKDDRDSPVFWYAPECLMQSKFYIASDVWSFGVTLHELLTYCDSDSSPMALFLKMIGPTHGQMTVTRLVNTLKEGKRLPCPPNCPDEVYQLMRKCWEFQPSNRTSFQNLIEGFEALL

Compound | pIC50
N#C[C@H]1CC(NCCO)CCC1n1cc(C(N)=O)c(Nc2ccc(S(=O)(=O)C(F)(F)F)cc2)n1 (mixture of isomers) [Example 27-15, 1-{(1S,2S and 1R,2R)-2-cyano-4-[(2-hydroxyethyl)amino]cyclohexyl}-3-({4-[(trifluoromethyl)sulfonyl]phenyl)amino)-l/f-pyrazolc-4-carboxamide] | 9.46
N#C[C@H]1CCCC[C@@H]1n1cc(C(N)=O)c(Nc2cc(F)cc(Cl)c2)n1 (single isomer, unassigned) [Example 17-51, 3-[(3-chloro-5-fluorophenyl)amino]-1-[(1S,2S or 1R,2R)-2-cyanocyclohexyl]-1H-pyrazole-4-carboxamide] | 8.15
CC(C)(CF)c1ccc(Nc2nn([C@H]3CC[C@@H](O)C[C@@H]3C#N)cc2C(N)=O)cc1 (single isomer, unassigned) [Example 25-9, 1-[(1S,2S,4R or 1R,2R,4S)-2-cyano-4-hydroxycyclohexyl]-3-{[4-(2-fluoro-1,1-dimethylethyl)phenyl]amino}-1H-pyrazole-4-carboxamide] | 9.00
N#C[C@@H]1CCCC[C@H]1n1cc(C(N)=O)c(Nc2ccc(F)nc2)n1 (single isomer, unassigned) [Example 17-23, 1-[(1R,2R or 1S,2S)-2-cyanocyclohexyl]-3-[(6-fluoropyridin-3-yl)amino]-1H-pyrazole-4-carboxamide] | 7.96
N#C[C@H]1CCCCC1n1cc(C(N)=O)c(Nc2ccc3c(c2)C=CS3(=O)=O)n1 (mixture of isomers) [Example 17-63, 1-[(1S,2S and 1R,2R)-2-cyanocyclohexyl]-3-[(1,1-dioxido-1-benzothiophen-5-yl)amino]-1H-pyrazole-4-carboxamide] | 9.35
CC(C)NS(=O)(=O)c1ccc(Nc2nn([C@H]3CCCC[C@@H]3C#N)cc2C(N)=O)cc1 (single isomer, unassigned) [Example 17-93, 1-[(1R,2R or 1S,2S)-2-cyanocyclohexyl]-3-({4-[(1-methylethyl)sulfamoyl]phenyl}amino)-1H-pyrazole-4-carboxamide] | 9.52
CC(C)(C(=O)NCC(F)(F)F)c1ccc(Nc2nn([C@H]3CCCC[C@@H]3C#N)cc2C(N)=O)cc1 (single isomer, unassigned) [Example 17-57, 1-[(1S,2S or 1R,2R)-2-cyanocyclohexyl]-3-[(4-{1,1-dimethyl-2-oxo-2-[(2,2,2-trifluoroethyl)amino]ethyl}phenyl)amino]-1H-pyrazole-4-carboxamide] | 9.70
N#C[C@@H]1CC2(CCC1n1cc(C(N)=O)c(Nc3ccnc(F)c3)n1)CC2 (mixture of isomers) [Example 11-7, 1-((5R,6R and 5S,6S)-5-cyanospiro[2.5]octan-6-yl)-3-((2-fluoropyridin-4-yl)amino)-1H-pyrazole-4-carboxamide] | 8.30
N#C[C@H]1C[C@H](O)CC[C@@H]1n1cc(C(N)=O)c(Nc2ccc(Cl)c(F)c2)n1 (single isomer, unassigned) [Example 25-3, 3-[(4-chloro-3-fluorophenyl)amino]-1-[(1S,2S,4R or 1R,2R,4S)-2-cyano-4-hydroxycyclohexyl]-1H-pyrazole-4-carboxamide] | 9.00
C[C@](O)(c1ccc(Nc2nn([C@H]3CCCC[C@@H]3C#N)cc2C(N)=O)cn1)C(F)F (single isomer, unassigned) [Example 17-39, 1-[(1S,2S or 1R,2R)-2-cyanocyclohexyl]-3-({6-[(1S or 1R)-2,2-difluoro-1-hydroxy-1-methylethyl]pyridin-3-yl}amino)-1H-pyrazole-4-carboxamide] | 9.00

Second part, the compound after the results:

pIC50 | Compound
9.40 | CN(C)[C@H]1CC[C@H](n2cc(C(N)=O)c(Nc3ccc(OC(F)F)cc3)n2)[C@@H](C#N)C1 (single isomer, unassigned) [Example 28-104, 1-[(1S,2S,4S or 1R,2R,4R)-2-cyano-4-(dimethylamino)cyclohexyl]-3-{[4-(difluoromethoxy)phenyl]amino}-1H-pyrazole-4-carboxamide]
9.10 | COCC(C)(C)N[C@H]1CCC(n2cc(C(N)=O)c(Nc3ccc(Cl)cc3)n2)[C@@H](C#N)C1 (single isomer, unassigned) [Example 28-222, 3-[(4-chlorophenyl)amino]-1-{(1S,2S,4S or 1R,2R,4R)-2-cyano-4-[(2-methoxy-1,1-dimethylethyl)amino]cyclo-hexyl}-1H-pyrazole-4-carboxamide]
8.70 | CN(C)[C@H]1CC[C@H](n2cc(C(N)=O)c(Nc3ccc(F)cc3)n2)[C@@H](C#N)C1 (single isomer, unassigned) [Example 28-94, 1-[(1S,2S,4S or 1R,2R,4S)-2-cyano-4-(dimethylamino)cyclohexyl]-3-[(4-fluorophenyl)amino]-1H-pyrazole-4-carboxamide]
9.66 | N#C[C@H]1CC(NC2COC2)CC[C@@H]1n1cc(C(N)=O)c(Nc2ccc(S(=O)(=O)C(F)(F)F)cc2)n1 (single isomer, unassigned) [Example 28-155, 1-[(1S,2S or 1R,2R)-2-cyano-4-(oxetan-3-ylamino)cyclohexyl]-3-({4-[(trifluoromethyl)sulfonyl]phen-yl}amino)-1H-pyrazole-4-carboxamide]
9.40 | N#C[C@H]1C[C@H](N2CCC2)CC[C@@H]1n1cc(C(N)=O)c(Nc2ccc(CC(F)(F)F)cc2)n1 (single isomer, unassigned) [Example 28-53, 1-[(1S,2S,4R or 1R,2R,4S)-4-azetidin-1-yl-2-cyanocyclohexyl]-3-{[4-(2,2,2-trifluoroethyl)phenyl]amino}-1H-pyrazole-4-carboxamide]
8.05 | N#C[C@@H]1C[C@H](C(=O)N2CC(F)C2)CC[C@H]1n1cc(C(N)=O)c(Nc2ccc(Cl)cc2)n1 (single isomer, unassigned) [Example 35-33, 3-[(4-chlorophenyl)amino]-1-{(1R,2R,4R or 1S,2S,4S)-2-cyano-4-[(3-fluoroazetidin-1-yl)carbonyl]cyclohexyl}-1H-pyrazole-4-carboxamide]
8.70 | N#C[C@H]1C[C@H](N2CC(O)(C(F)(F)F)C2)CC[C@@H]1n1cc(C(N)=O)c(Nc2ccc(C(F)(F)F)cc2)n1 (single isomer, unassigned) [Example 28-201, 1-{(1S,2S,4R or 1R,2R,4S)-2-cyano-4-[3-hydroxy-3-(trifluoromethyl)azetidin-1-yl]cyclohexyl}-3-{[4-(trifluoromethyl)phenyl]amino}-1H-pyrazole-4-carboxamide]
9.22 | N#C[C@H]1C[C@H](N2CC3(CCC3)C2)CC[C@@H]1n1cc(C(N)=O)c(Nc2ccc(C(F)(F)F)cc2)n1 (single isomer, unassigned) [Example 28-24, 1-[(1S,2S,4R or 1R,2R,4S)-4-(2-azaspiro[3.3]hept-2-yl)-2-cyanocyclohexyl]-3-{[4-(trifluoromethyl)phenyl]amino}-1H-pyrazole-4-carboxamide]
8.70 | C[C@@H]1C[C@@H](C)N1[C@H]1CC[C@H](n2cc(C(N)=O)c(Nc3ccc(C(F)(F)F)cc3)n2)[C@@H](C#N)C1 (single isomer, unassigned) [Example 28-9, 1-{(1S,2S,4S or 1R,2R,4R)-2-cyano-4-[(2R,4R or 2S,4S)-2,4-dimethylazetidin-1-yl]cyclohexyl}-3-{[4-(trifluoromethyl)phenyl]amino}-1H-pyrazole-4-carboxamide]
9.00 | CN(C)[C@H]1CC[C@H](n2cc(C(N)=O)c(Nc3ccc(F)cc3)n2)[C@@H](C#N)C1 (single isomer, unassigned) [Example 28-102, 1-[(1S,2S,4S or 1R,2R,4R)-2-cyano-4-(dimethylamino)cyclohexyl]-3-[(4-fluorophenyl)amino]-1H-pyrazole-4-carboxamide]
8.05 | CC1(CNC(=O)[C@H]2CC[C@H](n3cc(C(N)=O)c(Nc4ccc(Cl)cc4)n3)[C@@H](C#N)C2)COC1 (single isomer, unassigned) [Example 35-31, 3-[(4-chlorophenyl)amino]-1-[(1S,2S,4S or 1R,2R,4R)-2-cyano-4-{[(3-methyloxetan-3-yl)methyl]carbamoyl}cyclohexyl]-1H-pyrazole-4-carboxamide]
9.00 | C[C@]1(O)CC[C@H](n2cc(C(N)=O)c(Nc3ccc(Cl)cc3)n2)[C@@H](C#N)C1 (single isomer, unassigned) [Example 32-10, 3-[(4-chlorophenyl)amino]-1-[(1S,2S,4S or 1R,2R,4R)-2-cyano-4-hydroxy-4-methylcyclohexyl]-1H-pyrazole-4-carboxamide]
9.00 | COCC(C)N[C@H]1CCC(n2cc(C(N)=O)c(Nc3ccc(Cl)cc3)n2)[C@@H](C#N)C1 (single isomer, unassigned) [Example 28-237, 3-[(4-chlorophenyl)amino]-1-[(1S,2S,4S or 1R,2R,4R)-2-cyano-4-{[(1S)-2-methoxy-1-methylethyl]amino}cyclohexyl]-1H-pyrazole-4-carboxamide]
9.82 | N#C[C@@H]1CCCCC1n1cc(C(N)=O)c(Nc2ccc(S(=O)(=O)CC(F)(F)F)cc2)n1 (single isomer, unassigned) [Example 43-8, 1-[(1S,2S or 1R,2R)-2-cyanocyclohexyl]-3-({4-[(2,2,2-trifluoroethyl)sulfonyl]phenyl}amino)-1H-pyrazole-4-carboxamide]
8.52 | N#C[C@H]1C[C@@H](C(=O)N2CCC(F)(F)C2)CC[C@@H]1n1cc(C(N)=O)c(Nc2ccc(Cl)cc2)n1 (single isomer, unassigned) [Example 35-28, 3-[(4-chlorophenyl)amino]-1-{(1S,2S,4S or 1R,2R,4R)-2-cyano-4-[(3,3-difluoropyrrolidin-1-yl)carbonyl]cyclohexyl}-1H-pyrazole-4-carboxamide]
8.70 | COCC(C)N[C@H]1CCC(n2cc(C(N)=O)c(Nc3ccc(Cl)cc3)n2)[C@@H](C#N)C1 (single isomer, unassigned) [Example 28-238, 3-[(4-chlorophenyl)amino]-1-[(1S,2S,4S or 1R,2R,4R)-2-cyano-4-{[(1S)-2-methoxy-1-methylethyl]amino}cyclohexyl]-1H-pyrazole-4-carboxamide]
8.52 | C=C[C@]1(O)CC[C@H](n2cc(C(N)=O)c(Nc3ccc(Cl)cc3)n2)[C@@H](C#N)C1 (single isomer, unassigned) [Example 32-5, 3-[(4-chlorophenyl)amino]-1-[(1S,2S,4S or 1R,2R,4R)-2-cyano-4-ethenyl-4-hydroxycyclohexyl]-1H-pyrazole-4-carboxamide]
